From PubChem BioAssay (NCI)
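Grown in 96-well plates, cells were treated for 48 hours with each compound at five concentrations. Insufficient inhibition: endpoint recorded as highest concentration tested. TGI is the concentration that stops growth completely.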

Experiments:
Test in all cases: growth of human tumour cells (NCI), 48 h
XF 498 CNS = tested on: XF 498 CNS
UACC-62 melanoma = tested on: UACC-62 melanoma
NCI-H226 lung = tested on: NCI-H226 lung
LOX IMVI melanoma = tested on: LOX IMVI melanoma
SK-OV-3 ovarian = tested on: SK-OV-3 ovarian
RXF-631 renal = tested on: RXF-631 renal
CCRF-CEM leukemia = tested on: CCRF-CEM leukemia
K-562 leukemia = tested on: K-562 leukemia
UACC-257 melanoma = tested on: UACC-257 melanoma
NCI-H460 lung = tested on: NCI-H460 lung
SNB-78 CNS = tested on: SNB-78 CNS
NCI-H23 lung = tested on: NCI-H23 lung
MALME-3M melanoma = tested on: MALME-3M melanoma
EKVX NSCLC = tested on: EKVX NSCLC
HCT-15 colon = tested on: HCT-15 colon
KM12 colon = tested on: KM12 colon
IGROV1 ovarian = tested on: IGROV1 ovarian
SW-620 colon = tested on: SW-620 colon
RPMI-8226 leukemia = tested on: RPMI-8226 leukemia
HCC-2998 colon = tested on: HCC-2998 colon
SK-MEL-2 melanoma = tested on: SK-MEL-2 melanoma
HOP-92 NSCLC = tested on: HOP-92 NSCLC
TK-10 renal = tested on: TK-10 renal
RXF 393 renal = tested on: RXF 393 renal
MOLT-4 leukemia = tested on: MOLT-4 leukemia
HT29 colon = tested on: HT29 colon
HOP-62 NSCLC = tested on: HOP-62 NSCLC
COLO 205 colon = tested on: COLO 205 colon
OVCAR-3 ovarian = tested on: OVCAR-3 ovarian
OVCAR-5 ovarian = tested on: OVCAR-5 ovarian
DLD-1 colon = tested on: DLD-1 colon
SK-MEL-5 melanoma = tested on: SK-MEL-5 melanoma
A498 renal = tested on: A498 renal
SN12C renal = tested on: SN12C renal
OVCAR-8 ovarian = tested on: OVCAR-8 ovarian
A549 NSCLC = tested on: A549 NSCLC
SR leukemia = tested on: SR leukemia
HCT-116 colon = tested on: HCT-116 colon
HL-60(TB) leukemia = tested on: HL-60(TB) leukemia
SF-539 CNS = tested on: SF-539 CNS
DMS 114 small cell lung = tested on: DMS 114 small cell lung
SK-MEL-28 melanoma = tested on: SK-MEL-28 melanoma
DMS 273 small cell lung = tested on: DMS 273 small cell lung
SF-268 CNS = tested on: SF-268 CNS
SNB-75 CNS = tested on: SNB-75 CNS
KM20L2 colon = tested on: KM20L2 colon
LXFL 529 NSCLC = tested on: LXFL 529 NSCLC
U251 CNS = tested on: U251 CNS
HOP-18 NSCLC = tested on: HOP-18 NSCLC
M14 melanoma = tested on: M14 melanoma
OVCAR-4 ovarian = tested on: OVCAR-4 ovarian
M19-MEL melanoma = tested on: M19-MEL melanoma
SF-295 CNS = tested on: SF-295 CNS
UO-31 renal = tested on: UO-31 renal

Q: Which TGI (XF 498 CNS) does the source give for `O=S(=O)(N/N=C/c1c(Cl)cccc1Cl)c1ccccc1` here?
A: > 100 µM

Q: What about the TGI (UACC-62 melanoma) of the same compound?
A: > 100 µM

Q: What about the TGI (NCI-H226 lung) of the same compound?
A: > 100 µM

Q: And the TGI (LOX IMVI melanoma)?
A: > 100 µM

Q: And the TGI (SK-OV-3 ovarian)?
A: > 100 µM

Q: And the TGI (RXF-631 renal)?
A: > 100 µM

Q: And the TGI (CCRF-CEM leukemia)?
A: > 100 µM

Q: And the TGI (K-562 leukemia)?
A: > 100 µM

Q: What about the TGI (UACC-257 melanoma) of the same compound?
A: > 100 µM

Q: What about the TGI (NCI-H460 lung) of the same compound?
A: > 100 µM

Q: And the TGI (SNB-78 CNS)?
A: > 100 µM

Q: And the TGI (NCI-H23 lung)?
A: > 100 µM

Q: And the TGI (MALME-3M melanoma)?
A: > 100 µM

Q: What about the TGI (EKVX NSCLC) of the same compound?
A: > 100 µM

Q: What about the TGI (HCT-15 colon) of the same compound?
A: > 100 µM

Q: What about the TGI (KM12 colon) of the same compound?
A: > 100 µM

Q: And the TGI (IGROV1 ovarian)?
A: > 100 µM

Q: What about the TGI (SW-620 colon) of the same compound?
A: > 100 µM

Q: What about the TGI (RPMI-8226 leukemia) of the same compound?
A: > 100 µM

Q: And the TGI (HCC-2998 colon)?
A: > 100 µM

Q: And the TGI (SK-MEL-2 melanoma)?
A: > 100 µM

Q: And the TGI (HOP-92 NSCLC)?
A: > 100 µM

Q: And the TGI (TK-10 renal)?
A: > 100 µM

Q: What about the TGI (RXF 393 renal) of the same compound?
A: > 100 µM

Q: What about the TGI (MOLT-4 leukemia) of the same compound?
A: > 100 µM

Q: And the TGI (HT29 colon)?
A: > 100 µM

Q: What about the TGI (HOP-62 NSCLC) of the same compound?
A: > 100 µM

Q: What about the TGI (COLO 205 colon) of the same compound?
A: > 100 µM

Q: What about the TGI (OVCAR-3 ovarian) of the same compound?
A: > 100 µM

Q: And the TGI (OVCAR-5 ovarian)?
A: > 100 µM

Q: And the TGI (DLD-1 colon)?
A: > 100 µM

Q: And the TGI (SK-MEL-5 melanoma)?
A: > 100 µM

Q: And the TGI (A498 renal)?
A: > 100 µM

Q: What about the TGI (SN12C renal) of the same compound?
A: > 100 µM

Q: And the TGI (OVCAR-8 ovarian)?
A: > 100 µM

Q: And the TGI (A549 NSCLC)?
A: > 100 µM

Q: What about the TGI (SR leukemia) of the same compound?
A: > 100 µM

Q: What about the TGI (HCT-116 colon) of the same compound?
A: > 100 µM

Q: And the TGI (HL-60(TB) leukemia)?
A: 70.8 µM

Q: And the TGI (SF-539 CNS)?
A: > 100 µM

Q: What about the TGI (DMS 114 small cell lung) of the same compound?
A: > 100 µM

Q: What about the TGI (SK-MEL-28 melanoma) of the same compound?
A: > 100 µM

Q: What about the TGI (DMS 273 small cell lung) of the same compound?
A: > 100 µM

Q: What about the TGI (SF-268 CNS) of the same compound?
A: > 100 µM

Q: And the TGI (SNB-75 CNS)?
A: > 100 µM

Q: And the TGI (KM20L2 colon)?
A: > 100 µM

Q: What about the TGI (LXFL 529 NSCLC) of the same compound?
A: > 100 µM

Q: And the TGI (U251 CNS)?
A: > 100 µM

Q: What about the TGI (HOP-18 NSCLC) of the same compound?
A: > 100 µM

Q: What about the TGI (M14 melanoma) of the same compound?
A: > 100 µM

Q: What about the TGI (OVCAR-4 ovarian) of the same compound?
A: > 100 µM

Q: What about the TGI (M19-MEL melanoma) of the same compound?
A: > 100 µM

Q: And the TGI (SF-295 CNS)?
A: > 100 µM

Q: And the TGI (UO-31 renal)?
A: > 100 µM
